Laboratory results: ChEMBL document CHEMBL1649497, “Comparison of the pharmacodynamics of biapenem in bronchial epithelial lining fluid in healthy volunteers given half-hour and three-hour intravenous infusions” (Antimicrob Agents Chemother, 2009)

Experiments:
[1] = Tmax in epithelial lining fluid of healthy human at 0.3 […], iv after 3 hrs; assay type: ADME, organism-based
[2] = Tmax in plasma of healthy human at 0.3 […], iv after 0.5 hrs; assay type: ADME, organism-based
[3] = AUC in plasma of healthy human at 0.3 […], iv after 0.5 hrs; assay type: ADME, organism-based; parameters: time < 0.5 hr, route intravenous
[4] = Cmax in plasma of healthy human at 0.3 […], iv after 0.5 hrs; assay type: ADME, organism-based; parameters: route intravenous
[5] = T>MIC in healthy human at epithelial lining fluid MIC of 0.25 ug/ml and compound dose of 0.3 […], iv after 3 hrs; assay type: functional
[6] = T>MIC in healthy human at plasma MIC of 1 ug/ml and compound dose of 0.3 […], iv after 3 hrs; assay type: functional
[7] = T>MIC in healthy human at epithelial lining fluid MIC of 2 ug/ml and compound dose of 0.3 […], iv after 3 hrs; assay type: functional
[8] = T>MIC in healthy human at epithelial lining fluid MIC of 0.5 ug/ml and compound dose of 0.3 […], iv after 0.5 hrs; assay type: functional
[9] = Drug level in epithelial lining fluid of healthy human at 0.3 […], iv after 3 hrs; assay type: ADME, organism-based; conditions: read-out: Drug uptake
[10] = T>MIC in healthy human at plasma MIC of 0.25 ug/ml and compound dose of 0.3 […], iv after 3 hrs; assay type: functional
[11] = T>MIC in healthy human at plasma MIC of 0.5 ug/ml and compound dose of 0.3 […], iv after 3 hrs; assay type: functional
[12] = Cmax in epithelial lining fluid of healthy human at 0.3 […], iv after 0.5 hrs; assay type: ADME, organism-based; parameters: route intravenous
[13] = T>MIC in healthy human at epithelial lining fluid MIC of 4 ug/ml and compound dose of 0.3 […], iv after 3 hrs; assay type: functional
[14] = AUC in epithelial lining fluid of healthy human at 0.3 […], iv after 0.5 hrs; assay type: ADME, organism-based; parameters: time < 0.5 hr, route intravenous
[15] = T>MIC in healthy human at plasma MIC of 0.5 ug/ml and compound dose of 0.3 […], iv after 0.5 hrs; assay type: functional
[16] = T>MIC in healthy human at plasma MIC of 4 ug/ml and compound dose of 0.3 […], iv after 3 hrs; assay type: functional
[17] = T>MIC in healthy human at epithelial lining fluid MIC of 0.5 ug/ml and compound dose of 0.3 […], iv after […] hrs; assay type: functional
[18] = Tmax in plasma of healthy human at 0.3 […], iv after 3 hrs; assay type: ADME, organism-based
[19] = T>MIC in healthy human at epithelial lining fluid MIC of 1 ug/ml and compound dose of 0.3 […], iv after 0.5 hrs; assay type: functional
[20] = T>MIC in healthy human at plasma MIC of 2 ug/ml and compound dose of 0.3 […], iv after 3 hrs; assay type: functional
[21] = Cmax in epithelial lining fluid of healthy human at 0.3 […], iv after 3 hrs; assay type: ADME, organism-based; parameters: route intravenous
[22] = T>MIC in healthy human at epithelial lining fluid MIC of 0.5 ug/ml and compound dose of 0.3 […], iv after 3 hrs; assay type: functional
[23] = Drug level in epithelial lining fluid of healthy human at 0.3 […], iv after 0.5 hrs; assay type: ADME, organism-based; conditions: read-out: Drug uptake
[24] = Cmax in plasma of healthy human at 0.3 […], iv after 3 hrs; assay type: ADME, organism-based; parameters: route intravenous
[25] = Tmax in epithelial lining fluid of healthy human at 0.3 […], iv after 0.5 hrs; assay type: ADME, organism-based
[26] = T>MIC in healthy human at epithelial lining fluid MIC of 2 ug/ml and compound dose of 0.3 […], iv after 0.5 hrs; assay type: functional
[27] = AUC in plasma of healthy human at 0.3 […], iv after 3 hrs; assay type: ADME, organism-based; parameters: time < 3 hr, route intravenous
[28] = T>MIC in healthy human at plasma MIC of 1 ug/ml and compound dose of 0.3 […], iv after 0.5 hrs; assay type: functional
[29] = T>MIC in healthy human at plasma MIC of 2 ug/ml and compound dose of 0.3 […], iv after 0.5 hrs; assay type: functional
[30] = AUC in epithelial lining fluid of healthy human at 0.3 […], iv after 3 hrs; assay type: ADME, organism-based; parameters: time < 3 hr, route intravenous
[31] = T>MIC in healthy human at plasma MIC of 0.25 ug/ml and compound dose of 0.3 […], iv after 0.5 hrs; assay type: functional
[32] = T>MIC in healthy human at epithelial lining fluid MIC of 4 ug/ml and compound dose of 0.3 […], iv after 0.5 hrs; assay type: functional
[33] = T>MIC in healthy human at epithelial lining fluid MIC of 1 ug/ml and compound dose of 0.3 […], iv after 3 hrs; assay type: functional
[34] = T>MIC in healthy human at plasma MIC of 4 ug/ml and compound dose of 0.3 […], iv after 0.5 hrs; assay type: functional

Compound `C[C@@H](O)[C@H]1C(=O)N2C(C(=O)[O-])=C(SC3Cn4cnc[n+]4C3)[C@H](C)[C@H]12` (some centres undefined) [BIAPENEM] has a Tmax [1] of 1.8 h, a Tmax [2] of 0.5 h and an AUC at 0.5 h [3] of 25 µg·h/mL. For the same compound, the Cmax [4] was 18.1 µg/mL, the “fT>MIC” value [5] was 52.2% and the “fT>MIC” value [6] was 43.8%. The “fT>MIC” value [7] was 17.4%, the “fT>MIC” value [8] was 25.5% and the concentration at 3 h [9] was 1.33 µg/mL. For the same compound, the “fT>MIC” value [10] was 64.5%, the “fT>MIC” value [11] was 53.7% and the Cmax [12] was 2.35 µg/mL. For the same compound, the “fT>MIC” value [13] was 5.1%, the AUC at 0.5 h [14] was 6.4 µg·h/mL and the “fT>MIC” value [15] was 43.1%. For the same compound, the “fT>MIC” value [16] was 22.3%, the “fT>MIC” value [17] was 34.6% and the Tmax [18] was 3 h. For the same compound, the “fT>MIC” value [19] was 15.5%, the “fT>MIC” value [20] was 34.3% and the Cmax [21] was 4.36 µg/mL. The “fT>MIC” value [22] was 41.4%, the concentration at 0.5 h [23] was 3.48 µg/mL and the Cmax [24] was 6.8 µg/mL. The Tmax [25] was 1.5 h, the “fT>MIC” value [26] was 5.8% and the AUC at 3 h [27] was 25.4 µg·h/mL. The “fT>MIC” value [28] was 31.9%, the “fT>MIC” value [29] was 21.1% and the AUC at 3 h [30] was 13.3 µg·h/mL. The “fT>MIC” value [31] was 53.5%, the “fT>MIC” value [32] was 0% and the “fT>MIC” value [33] was 29.1%. For the same compound, the “fT>MIC” value [34] was 12.6%.
